Measured values: patent publication US20200385777A1, “METHOD FOR DETERMINING DYSBIOSIS IN THE INTESTINAL MICROBIOME” (EVOLVE BIOSYSTEMS, INC., priority 2018, published 2020)

How the values were obtained:
[1] = tested on: isolate 7084-4; assay: MIC microdilution, fecal isolate 7084-4; assay type: cell-based; settings: for Resistant/Susceptible according to breakpoints for clinical resistance: isolate 7084-4; for MIC: read-out: Minimum inhibitory concentration (MIC)
Protocol: (§1) Whole genome sequencing and assembly of bacterial isolates. […] Selected isolates were grown in 20 ml LB broth overnight at 37° C. Cultures were aliquoted into 1 ml aliquots, centrifuged at 10,000×g for 5 min and the supernatant was removed. Cell pellets were resuspended in DNA/RNA Shield solution provided in DNA/RNA Shield Microbe Lysis tubes (Zymo Research, Irvine Calif.) and transferred into lysis tubes. High-molecular weight genomic DNA was extracted using the Quick-DNA Fecal/Soil
(§2) Minimal inhibitory concentrations. […] Carbenicillin was added to growth media for transformed strains at a concentration of 100 μg/ml. The microtiter plates were incubated for 24 h at 37° C. The optical density (OD) of each well was measured at 600 nm using an automated microtiter plate reader (BIO-TEK, Synergy HT). The MIC corresponded to the lowest antibiotic concentration at which no growth was detected. All tests were performed in triplicate

[2] = tested on: bacteria isolated from EMB agar from fecal samples of control infants; assay: MIC, fecal isolates of control infants taken together; assay type: cell-based, Escherichia coli; Raoultella planticola; settings: all fecal isolates
Protocol: To confirm the presence of full length, functional ARGs and the relationship of these ARGs to individual resistance phenotypes at the strain level, bacteria isolated from EMB agar were obtained from the fecal samples of four representative control infants. Whole-genome sequencing of twelve isolates was performed on a MinION sequencer and assembly led to an average coverage of 18× (min 5.4; max 40). Taxonomic identification was confirmed via BLASTN against the NCBI nucleotide database (https://www.ncbl.nlrn.nih.gov/nucleotide) showing three isolates classified as Raoultella planticola and the remaining nine as Escherichia coli. The CARD protein sequences collection was used as query against the twelve assembled isolates via TBLASTN. […] The latter genes are likely absent on the E. coli and R. planticola genomes and present on different species.
Whole genome sequencing and assembly of bacterial isolates. […]
Minimal inhibitory concentrations. Minimal inhibitory concentrations (MICs) were determined according to Clinical and Laboratory Standards Institute guidelines for microdilution susceptibility testing {Wikler, 2006}. […] The optical density (OD) of each well was measured at 600 nm using an automated microtiter plate reader (BIO-TEK, Synergy HT). The MIC corresponded to the lowest antibiotic concentration at which no growth was detected. […]

[3] = tested on: isolate 7122-1; assay: MIC microdilution, fecal isolate 7122-1; assay type: cell-based; settings: for Resistant/Susceptible according to breakpoints for clinical resistance: isolate 7122-1; for MIC: read-out: Minimum inhibitory concentration (MIC)
Protocol: as §1, §2

[4] = tested on: isolate 7005-9; assay: MIC microdilution, fecal isolate 7005-9; assay type: cell-based; settings: for Resistant/Susceptible according to breakpoints for clinical resistance: isolate 7005-9; for MIC: read-out: Minimum inhibitory concentration (MIC)
Protocol: as §1, §2

[5] = tested on: isolate 7174-5; assay: MIC microdilution, fecal isolate 7174-5; assay type: cell-based; settings: for Resistant/Susceptible according to breakpoints for clinical resistance: isolate 7174-5; for MIC: read-out: Minimum inhibitory concentration (MIC)
Protocol: as §1, §2

[6] = tested on: isolate 7005-5; assay: MIC microdilution, fecal isolate 7005-5; assay type: cell-based; settings: for Resistant/Susceptible according to breakpoints for clinical resistance: isolate 7005-5; for MIC: read-out: Minimum inhibitory concentration (MIC)
Protocol: as §1, §2

[7] = tested on: DH5α; assay: MIC microdilution, DH5α; assay type: cell-based; settings: for MIC: read-out: Minimum inhibitory concentration (MIC)
Protocol: as §2

[8] = tested on: isolate 7174-2; assay: MIC microdilution, fecal isolate 7174-2; assay type: cell-based; settings: for Resistant/Susceptible according to breakpoints for clinical resistance: isolate 7174-2; for MIC: read-out: Minimum inhibitory concentration (MIC)
Protocol: as §1, §2

[9] = tested on: isolate 7084-1; assay: MIC microdilution, fecal isolate 7084-1; assay type: cell-based; settings: for Resistant/Susceptible according to breakpoints for clinical resistance: isolate 7084-1; for MIC: read-out: Minimum inhibitory concentration (MIC)
Protocol: as §1, §2

[10] = tested on: isolate 7005-11; assay: MIC microdilution, fecal isolate 7005-11; assay type: cell-based; settings: for Resistant/Susceptible according to breakpoints for clinical resistance: isolate 7005-11; for MIC: read-out: Minimum inhibitory concentration (MIC)
Protocol: as §1, §2

[11] = tested on: isolate 7005-13; assay: MIC microdilution, fecal isolate 7005-13; assay type: cell-based; settings: for Resistant/Susceptible according to breakpoints for clinical resistance: isolate 7005-13; for MIC: read-out: Minimum inhibitory concentration (MIC)
Protocol: as §1, §2

[12] = tested on: isolate 7122-2; assay: MIC microdilution, fecal isolate 7122-2; assay type: cell-based; settings: for Resistant/Susceptible according to breakpoints for clinical resistance: isolate 7122-2; for MIC: read-out: Minimum inhibitory concentration (MIC)
Protocol: as §1, §2

[13] = tested on: isolate 7084-5; assay: MIC microdilution, fecal isolate 7084-5; assay type: cell-based; settings: for Resistant/Susceptible according to breakpoints for clinical resistance: isolate 7084-5; for MIC: read-out: Minimum inhibitory concentration (MIC)
Protocol: as §1, §2

[14] = tested on: isolate 7174-4; assay: MIC microdilution, fecal isolate 7174-4; assay type: cell-based; settings: for Resistant/Susceptible according to breakpoints for clinical resistance: isolate 7174-4; for MIC: read-out: Minimum inhibitory concentration (MIC)
Protocol: as §1, §2

[15] = tested on: isolate 7122-9; assay: MIC microdilution, fecal isolate 7122-9; assay type: cell-based; settings: for Resistant/Susceptible according to breakpoints for clinical resistance: isolate 7122-9; for MIC: read-out: Minimum inhibitory concentration (MIC)
Protocol: as §1, §2

SMILES | Resistant/Susceptible according to breakpoints for clinical resistance [1] | MIC [1] | Resistant/Susceptible according to breakpoints for clinical resistance [3] | MIC [3] | Resistant/Susceptible according to breakpoints for clinical resistance [4] | MIC [4] | Resistant/Susceptible according to breakpoints for clinical resistance [5] | MIC [5] | Resistant/Susceptible according to breakpoints for clinical resistance [6] | MIC [6] | Resistant/Susceptible according to breakpoints for clinical resistance [7] | MIC [7] | MIC [8] | MIC [9] | MIC [10] | MIC [11] | MIC [12] | MIC [13] | MIC [14] | MIC [15] | also measured
CC1(C)S[C@@H]2[C@H](NC(=O)[C@H](N)c3ccccc3)C(=O)N2[C@H]1C(=O)O [Ampicillin] | (R) | 512 µg/mL | (S) | 16 µg/mL | (R) | 128 µg/mL | (R) | 512 µg/mL | (R) | 128 µg/mL | (S) | 4 µg/mL | 512 µg/mL | 512 µg/mL | 64 µg/mL | 64 µg/mL | 16 µg/mL | 512 µg/mL | 512 µg/mL | 16 µg/mL | Resistance among the isolates [2]: With the exception of three isolates obtained from the same infant (7174), all of the isolates displayed resistance; Resistant/Susceptible according to breakpoints for clinical resistance [8]: (R); Resistant/Susceptible according to breakpoints for clinical resistance [9]: (R); Resistant/Susceptible according to breakpoints for clinical resistance [10]: (R); Resistant/Susceptible according to breakpoints for clinical resistance [11]: (R); Resistant/Susceptible according to breakpoints for clinical resistance [12]: (S); Resistant/Susceptible according to breakpoints for clinical resistance [13]: (R); Resistant/Susceptible according to breakpoints for clinical resistance [14]: (R); Resistant/Susceptible according to breakpoints for clinical resistance [15]: (S)
CO/N=C(\C(=O)N[C@@H]1C(=O)N2C(C(=O)O)=C(COC(C)=O)CS[C@H]12)c1csc(N)n1 [Cefotaxime] | (S) | < 4 µg/mL | (S) | < 4 µg/mL | (R) | 128 µg/mL | (S) | < 4 µg/mL | (R) | 32 µg/mL | (S) | < 4 µg/mL | < 4 µg/mL | < 4 µg/mL | 512 µg/mL | 512 µg/mL | < 4 µg/mL | < 4 µg/mL | < 4 µg/mL | < 4 µg/mL | Resistant/Susceptible according to breakpoints for clinical resistance [8]: (S); Resistant/Susceptible according to breakpoints for clinical resistance [9]: (S); Resistant/Susceptible according to breakpoints for clinical resistance [10]: (R); Resistant/Susceptible according to breakpoints for clinical resistance [11]: (R); Resistant/Susceptible according to breakpoints for clinical resistance [12]: (S); Resistant/Susceptible according to breakpoints for clinical resistance [13]: (S); Resistant/Susceptible according to breakpoints for clinical resistance [14]: (S); Resistant/Susceptible according to breakpoints for clinical resistance [15]: (S)
Cc1nnc(SCC2=C(C(=O)O)N3C(=O)[C@@H](NC(=O)Cn4cnnn4)[C@H]3SC2)s1 [Cefazolin] | – | 32 µg/mL | – | 8 µg/mL | – | 64 µg/mL | – | 512 µg/mL | – | 64 µg/mL | – | < 4 µg/mL | 64 µg/mL | 32 µg/mL | 64 µg/mL | 64 µg/mL | 8 µg/mL | 32 µg/mL | 512 µg/mL | 8 µg/mL | –
